Format in all cases: binding
Assay [1] addresses T1, ARL11 (Homo sapiens, UniProt Q969Q4).
T1 construct: amino acids 1–196 (GST tag cleaved with thrombin)
As to the kind of experiment: ITC; 1H-15N HSQC NMR. In general terms: ITC needs no label: the signal is the heat of the interaction.

For assay [2], the target named is T2, ARL10 (Homo sapiens, UniProt Q8N8L6).
T2 construct: GFP-tagged, purified from HEK293T cells
T2 sequence (Q8N8L6 1-244): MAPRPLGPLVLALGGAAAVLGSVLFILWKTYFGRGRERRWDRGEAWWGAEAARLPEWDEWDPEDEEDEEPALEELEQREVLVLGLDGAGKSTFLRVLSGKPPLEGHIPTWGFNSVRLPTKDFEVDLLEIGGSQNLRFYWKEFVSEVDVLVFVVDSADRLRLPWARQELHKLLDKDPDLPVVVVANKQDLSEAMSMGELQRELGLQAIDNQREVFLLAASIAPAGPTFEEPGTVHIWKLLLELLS
As to the kind of experiment: co-purified nucleotide by ion-pair reversed-phase HPLC.

The target of assay [3] is T3, KRAS (Homo sapiens, UniProt P01116, Q61L).
T3 construct: GFP-tagged, purified from HEK293T cells
Described as above.

Assay [4] concerns the target T2, ARL10. The assay is described as above. The source holds these as a separate data set.
Assay [5] concerns the target T4, KRAS (Homo sapiens, UniProt P01116).
T4 construct: GFP-tagged, purified from HEK293T cells
The assay is described as above.

For assay [6], the target named is T5, ARF1 (Homo sapiens, UniProt P84077).
T5 construct: GFP-tagged, purified from HEK293T cells
Described as above.

Like-named read-outs stand apart in the source and are kept apart here.

T1 sequence (Q969Q4 whole entry, the tested form may be a part): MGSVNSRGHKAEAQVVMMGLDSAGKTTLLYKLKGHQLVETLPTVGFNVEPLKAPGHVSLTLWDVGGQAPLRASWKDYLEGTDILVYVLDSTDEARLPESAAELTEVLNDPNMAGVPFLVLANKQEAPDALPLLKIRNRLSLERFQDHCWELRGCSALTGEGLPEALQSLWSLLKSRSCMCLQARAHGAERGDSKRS
T5 sequence (P84077 2-181): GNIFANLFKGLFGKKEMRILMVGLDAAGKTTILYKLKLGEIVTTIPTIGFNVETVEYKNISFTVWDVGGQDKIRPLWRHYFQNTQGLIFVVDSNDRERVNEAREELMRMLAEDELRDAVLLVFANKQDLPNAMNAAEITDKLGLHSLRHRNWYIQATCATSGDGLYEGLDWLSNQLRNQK

In general, Kd refers to the equilibrium constant for the complex coming apart. In the case of `Nc1nc2c(ncn2[C@@H]2O[C@H](COP(=O)(O)OP(=O)(O)OP(O)(O)=S)[C@@H](O)[C@H]2O)c(=O)[nH]1` [GTPγS], in assay [1], the affinity, expressed as Kd, was 1.53 nM.
Turning to `Nc1nc2c(ncn2[C@@H]2O[C@H](COP(=O)(O)OP(=O)(O)OP(=O)(O)O)[C@@H](O)[C@H]2O)c(=O)[nH]1` [GTP], the “% GTP” value in assay [2] was 29 % GTP; in assay [3] it was 59 % GTP.
On to `Nc1nc2c(ncn2[C@@H]2O[C@H](COP(=O)(O)OP(=O)(O)O)[C@@H](O)[C@H]2O)c(=O)[nH]1` [GDP], for which the “co-purified nucleotide by ion-pair reversed-phase HPLC” value is “WT ARL10 co-precipitated with both GDP and GTP” in assay [4]; “WT KRAS remained GDP loaded, as did WT ARF1” in assay [5]; “WT KRAS remained GDP loaded, as did WT ARF1” in assay [6]. Moreover, in assay [1] (read-out: Kd), the Kd amounted to 1730 nM.
